pIC50: −log10 of the molar value.
Legend:
stimulated IMR-90 cells = assay: Cell viability, CellTiter-Glo Luminescent Assay; format: cell-based, human
Description: IMR-90 cells were cultured in Eagle's Minimum Essential Medium (EMEM) containing 2 mM L-glutamine, 1 g/L glucose, 1.5 g/L NaHCO3, 1 mM sodium pyruvate and non-essential amino acids (ATCC, 30-2003™) supplemented with 10% FBS (Biochrom, 50615) and 50 U/mL Penicillin, 50 μg/mL Streptomycin (PAA, P11-010). The assay was performed in EMEM and a cell density of […] IMR-90 cells/96-well. The compound examples were serially diluted in 100% DMSO and evaluated at 8 different concentrations within the range of 3 nM and 10 μM and a final DMSO concentration of 0.4%. The IMR-90 cells were incubated with the respective concentration of the compound for 30 min. […] The amount of IL-6 and IL-8 in the supernatant was determined using the Human ProInflammatory Panel II (4-Plex) (MSD, K15025B) according to manufacturer's instruction. […] Plates were washed three times with phosphate-buffered saline (PBS; 137 mM NaCl, 2.7 mM KCl, 6.5 mM Na2HP04, 1.7 mM KH2P04) containing 0.05% Tween-20 (Bio-Rad, 161-0781) and electrochemiluminescence detected using the MSD Sector Imager 6000 plate reader. The cell viability was measured using the CellTiter-Glo Luminescent Assay (Promega, G7571) following the manufacturers protocol. […] After incubation and shaking for 10 minutes luminescent signal was measured which was proportional to the amount of ATP present. […]

IL-8 secretion = assay: Bradykinin B1 receptor agonist-induced secretion of IL-8 in human IMR-90 cells; format: cell-based; conditions: 0.1 μM Lys-[Des-Arg9]Bradykinin and 0.1 μM Sar-[D-Phe8]-des-Arg9-Bradykinin, 5 hours
Source text: Inhibitory Activity on Bradykinin B1 Receptor Agonist-Induced Secretion of IL-6 and IL-8 in Human IMR-90 Cells
The effect of the compound examples on secretion of the cytokine IL-6 and IL-8 was investigated in the human foetal lung fibroblast IMR-90 cell line. Here the induction of the cytokine secretion was induced by the Bradykinin B1 receptor agonists Lys-[Des-Arg9]Bradykinin (CAS 71800-36-7, Tocris Bioscience) and Sar-[D-Phe8]-des-Arg9-Bradykinin (CAS 126959-88-4, Tocris Bioscience) leading to the activation of the Bradykinin B1-driven signalling pathway. […]
IMR-90 cells were cultured in Eagle's Minimum Essential Medium (EMEM) containing 2 mM L-glutamine, 1 g/L glucose, 1.5 g/L NaHCO3, 1 mM sodium pyruvate and non-essential amino acids (ATCC, 30-2003™) supplemented with 10% FBS (Biochrom, 50615) and 50 U/mL Penicillin, 50 μg/mL Streptomycin (PAA, P11-010). […] The compound examples were serially diluted in 100% DMSO and evaluated at 8 different concentrations within the range of 3 nM and 10 μM and a final DMSO concentration of 0.4%. […] The amount of IL-6 and IL-8 in the supernatant was determined using the Human ProInflammatory Panel II (4-Plex) (MSD, K15025B) according to manufacturer's instruction. […] The cell viability was measured using the CellTiter-Glo Luminescent Assay (Promega, G7571) following the manufacturers protocol. […]

pIC50 (IL-8 secretion): 6.73
SMILES: O=C(O)c1cc(NC(=O)C2CC2c2ccc(Cl)cc2)cc(F)c1-c1cnn(C2CCC2)c1 (racemic) [Example 2, 5-({[2-(4-chlorophenyl)cyclopropyl]carbonyl}amino)-2-(1-cyclobutyl-1H-pyrazol-4-yl)-3-fluorobenzoic acid]
effect on the cell viability (stimulated IMR-90 cells): no effect

From patent US20190177279A1, “CARBOXYLIC ACID AROMATIC 1,2-CYCLOPROPYLAMIDES” (Bayer Pharma Aktiengesellschaft, priority 2017, published 2019)
